Reference: ChEMBL document CHEMBL4118137, “Design, synthesis and antineoplastic activity of novel hybrids of podophyllotoxin and indirubin against human leukaemia cancer cells as multifunctional anti-MDR agents” (Bioorg Med Chem Lett, 2018)
The source made the active and inactive calls. The rule behind the calls is not given here.

How the values were obtained:
K562/Adr = assay: Antiproliferative activity against human K562/ADR cells after 72 hrs by CCK8 assay; assay type: functional, cell-based
K562 = assay: Antiproliferative activity against human K562 cells after 72 hrs by CCK8 assay; assay type: functional, cell-based; settings: K562, 72 h
K562/VCR [1] = assay: Antiproliferative activity against human K562/VCR cells after 72 hrs by CCK8 assay; assay type: functional, cell-based
[2] = Resistance factor, ratio of IC50 for human K562/VCR cells to IC50 for human K562 cells; assay type: functional
K562/VCR [3] = assay: Induction of reactive oxygen species formation in human K562/VCR cells at 0.1 uM after 24 hrs by DCFH-DA staining-based flow cytometric method (reference value: 0.41%); assay type: functional
[4] = target: T1, c-Jun N-terminal kinase, JNK (Homo sapiens) (UniProt P45983+P53779+P45984); assay: Induction of JNK phosphorylation in human K562/VCR cells at 0.1 uM after 48 hrs by Western blot method relative to beta-actin; assay type: cell-based
[5] = target: RAC-alpha serine/threonine-protein kinase (Homo sapiens) (UniProt P31749); assay: Inhibition of AKT phosphorylation in human K562/VCR cells at 0.1 uM after 48 hrs by Western blot method relative to beta-actin; assay type: cell-based
K562/VCR [6] = assay: Reduction in mitochondrial membrane potential in human K562/VCR cells at 0.1 uM after 48 hrs by JC1 probe-based flow cytometric method (reference value: 2.65%); assay type: functional; parameters: scale not given: the % may be the effect or the level left
K562/VCR [7] = assay: Cell cycle arrest in human K562/VCR cells assessed as accumulation at G1 phase at 0.1 uM after 48 hrs by propidium iodide staining-based flow cytometric method (reference value: 46.20%); assay type: functional
K562/VCR [8] = assay: Induction of apoptosis in human K562/VCR cells assessed as necrotic cells at 0.1 uM after 48 hrs by annexin-V-FITC/propidium iodide staining-based flow cytometric method (reference value: 0.15%); assay type: functional
[9] = target: T1, c-Jun N-terminal kinase, JNK (Homo sapiens); assay: Induction of JNK phosphorylation in human K562/VCR cells at 0.05 uM after 48 hrs by Western blot method relative to beta-actin; assay type: cell-based
K562/VCR [10] = assay: Induction of autophagy in human K562/VCR cells assessed as upregulation of beclin-1 expression at 0.05 uM after 48 hrs by Western blot method relative to beta-actin; assay type: functional
K562/VCR [11] = assay: Induction of autophagy in human K562/VCR cells assessed as upregulation of LC3-2 expression at 0.1 uM after 48 hrs by Western blot method relative to beta-actin; assay type: functional
K562/VCR [12] = assay: Induction of apoptosis in human K562/VCR cells assessed as upregulation of cleaved PARP expression at 0.05 uM after 48 hrs by Western blot method relative to beta-actin; assay type: functional
K562/VCR [13] = assay: Induction of apoptosis in human K562/VCR cells assessed as downregulation of CDK2 expression at 0.1 uM after 48 hrs by Western blot method relative to beta-actin; assay type: functional
K562/VCR [14] = assay: Cell cycle arrest in human K562/VCR cells assessed as accumulation at G2 phase at 0.05 uM after 48 hrs by propidium iodide staining-based flow cytometric method (reference value: 7.78%); assay type: functional
K562/VCR [15] = assay: Induction of apoptosis in human K562/VCR cells assessed as downregulation of CDK2 expression at 0.05 uM after 48 hrs by Western blot method relative to beta-actin; assay type: functional
K562/VCR [16] = assay: Downregulation of MRP-1 expression in human K562/VCR cells at 0.1 uM after 48 hrs by Western blot method relative to beta-actin; assay type: functional
K562/VCR [17] = assay: Induction of apoptosis in human K562/VCR cells assessed as upregulation of cleaved PARP expression at 0.1 uM after 48 hrs by Western blot method relative to beta-actin; assay type: functional
K562/VCR [18] = assay: Induction of apoptosis in human K562/VCR cells assessed as viable cells at 0.1 uM after 48 hrs by annexin-V-FITC/propidium iodide staining-based flow cytometric method (reference value: 91.05%); assay type: functional; settings: read-out: Activity
K562/VCR [19] = assay: Induction of apoptosis in human K562/VCR cells assessed as late apoptotic cells at 0.05 uM after 48 hrs by annexin-V-FITC/propidium iodide staining-based flow cytometric method (reference value: 1.90%); assay type: functional
K562/VCR [20] = assay: Induction of apoptosis in human K562/VCR cells assessed as early apoptotic cells at 0.1 uM after 48 hrs by annexin-V-FITC/propidium iodide staining-based flow cytometric method (reference value: 6.90%); assay type: functional
K562/VCR [21] = assay: Induction of apoptosis in human K562/VCR cells assessed as downregulation of CDK1 expression at 0.05 uM after 48 hrs by Western blot method relative to beta-actin; assay type: functional
Homo sapiens = species: Homo sapiens; assay: Inhibition of alpha-tubulin polymerization in human K562/VCR cells assessed as disruption of microtubule organization at 0.05 to 0.1 uM after 24 hrs by DAPI staining-based immunofluorescence assay; assay type: cell-based
K562/VCR [22] = assay: Induction of apoptosis in human K562/VCR cells assessed as late apoptotic cells at 0.1 uM after 48 hrs by annexin-V-FITC/propidium iodide staining-based flow cytometric method (reference value: 1.90%); assay type: functional
K562/VCR [23] = assay: Induction of autophagy in human K562/VCR cells assessed as upregulation of LC3-2 expression at 0.05 uM after 48 hrs by Western blot method relative to beta-actin; assay type: functional
K562/VCR [24] = assay: Cell cycle arrest in human K562/VCR cells assessed as accumulation at G1 phase at 0.05 uM after 48 hrs by propidium iodide staining-based flow cytometric method (reference value: 46.20%); assay type: functional
K562/VCR [25] = assay: Induction of reactive oxygen species formation in human K562/VCR cells at 0.05 uM after 24 hrs by DCFH-DA staining-based flow cytometric method (reference value: 0.41%); assay type: functional
K562/VCR [26] = assay: Induction of apoptosis in human K562/VCR cells assessed as downregulation of CDK1 expression at 0.1 uM after 48 hrs by Western blot method relative to beta-actin; assay type: functional
[27] = target: RAC-alpha serine/threonine-protein kinase (Homo sapiens) (UniProt P31749); assay: Inhibition of AKT phosphorylation in human K562/VCR cells at 0.05 uM after 48 hrs by Western blot method relative to beta-actin; assay type: cell-based
K562/VCR [28] = assay: Downregulation of P-gp expression in human K562/VCR cells at 0.1 uM after 48 hrs by Western blot method relative to beta-actin; assay type: functional
K562/VCR [29] = assay: Cell cycle arrest in human K562/VCR cells assessed as accumulation at S phase at 0.1 uM after 48 hrs by propidium iodide staining-based flow cytometric method (reference value: 46.02%); assay type: functional
K562/VCR [30] = assay: Induction of apoptosis in human K562/VCR cells assessed as necrotic cells at 0.05 uM after 48 hrs by annexin-V-FITC/propidium iodide staining-based flow cytometric method (reference value: 0.15%); assay type: functional
K562/VCR [31] = assay: Induction of apoptosis in human K562/VCR cells assessed as viable cells at 0.05 uM after 48 hrs by annexin-V-FITC/propidium iodide staining-based flow cytometric method (reference value: 91.05%); assay type: functional; settings: read-out: Activity
K562/VCR [32] = assay: Downregulation of P-gp expression in human K562/VCR cells at 0.05 uM after 48 hrs by Western blot method relative to beta-actin; assay type: functional
K562/VCR [33] = assay: Cell cycle arrest in human K562/VCR cells assessed as accumulation at S phase at 0.05 uM after 48 hrs by propidium iodide staining-based flow cytometric method (reference value: 46.02%); assay type: functional
K562/VCR [34] = assay: Induction of autophagy in human K562/VCR cells assessed as upregulation of beclin-1 expression at 0.1 uM after 48 hrs by Western blot method relative to beta-actin; assay type: functional
K562/VCR [35] = assay: Downregulation of MRP-1 expression in human K562/VCR cells at 0.05 uM after 48 hrs by Western blot method relative to beta-actin; assay type: functional
K562/VCR [36] = assay: Induction of apoptosis in human K562/VCR cells assessed as early apoptotic cells at 0.05 uM after 48 hrs by annexin-V-FITC/propidium iodide staining-based flow cytometric method (reference value: 6.90%); assay type: functional
K562/VCR [37] = assay: Reduction in mitochondrial membrane potential in human K562/VCR cells at 0.05 uM after 48 hrs by JC1 probe-based flow cytometric method (reference value: 2.65%); assay type: functional; parameters: scale not given: the % may be the effect or the level left
K562/VCR [38] = assay: Cell cycle arrest in human K562/VCR cells assessed as accumulation at G2 phase at 0.1 uM after 48 hrs by propidium iodide staining-based flow cytometric method (reference value: 7.78%); assay type: functional

Sequence of RAC-alpha serine/threonine-protein kinase (Homo sapiens) (P31749 whole entry): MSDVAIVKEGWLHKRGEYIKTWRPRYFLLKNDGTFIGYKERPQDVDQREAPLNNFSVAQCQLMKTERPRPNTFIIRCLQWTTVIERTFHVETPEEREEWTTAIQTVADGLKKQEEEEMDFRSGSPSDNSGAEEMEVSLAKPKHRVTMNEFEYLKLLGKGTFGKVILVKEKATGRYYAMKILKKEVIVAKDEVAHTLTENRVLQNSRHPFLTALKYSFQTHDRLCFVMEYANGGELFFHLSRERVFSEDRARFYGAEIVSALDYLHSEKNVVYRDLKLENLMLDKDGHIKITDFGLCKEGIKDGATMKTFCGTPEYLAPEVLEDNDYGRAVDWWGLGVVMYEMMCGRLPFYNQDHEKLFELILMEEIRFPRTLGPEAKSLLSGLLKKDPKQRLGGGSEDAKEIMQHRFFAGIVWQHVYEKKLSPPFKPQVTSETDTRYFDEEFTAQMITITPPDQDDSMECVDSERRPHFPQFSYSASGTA

Q: For `COc1cc([C@@H]2c3cc4c(cc3[C@H](OC(=O)CN3C(=O)C(=O)c5c(Br)cccc53)[C@H]3COC(=O)[C@H]23)OCO4)cc(OC)c1OC`, which IC50 (K562/Adr) is on record?
A: 67 nM

Q: Which IC50 (K562) does the source give for `COc1cc([C@@H]2c3cc4c(cc3[C@H](OC(=O)CCCCCN3C(=O)/C(=C5\Nc6ccccc6C5=O)c5ccccc53)[C@H]3COC(=O)[C@H]23)OCO4)cc(OC)c1OC` here?
A: 17000 nM

Q: And the IC50 (K562/VCR [1])?
A: 85700 nM

Q: What about the “Ratio IC50” value [2] of the same compound?
A: 5.02

Q: Which results are given for `COc1cc([C@@H]2c3cc4c(cc3[C@H](OC(=O)CN3C(=O)/C(=C5\Nc6ccccc6C5=O)c5ccccc53)[C@H]3COC(=O)[C@H]23)OCO4)cc(OC)c1OC`?
A: Activity (K562/VCR [3]): 39.84%; fold change (FC) [4]: 0.84; fold change (FC) [5]: 0.43; Activity (K562/VCR [6]): 40.38%; Activity (K562/VCR [7]): 17.33%; Activity (K562/VCR [8]): 0.1%; fold change (FC) [9]: 0.7; IC50 (K562): 34 nM; fold change (FC) (K562/VCR [10]): 0.52; fold change (FC) (K562/VCR [11]): 0.63; fold change (FC) (K562/VCR [12]): 0.46; fold change (FC) (K562/VCR [13]): 0.36; Activity (K562/VCR [14]): 46.93%; fold change (FC) (K562/VCR [15]): 0.44; IC50 (K562/VCR [1]): 76 nM; fold change (FC) (K562/VCR [16]): 0.24; fold change (FC) (K562/VCR [17]): 0.56; viability at 0.1 µM (K562/VCR [18]): 52.4%; Activity (K562/VCR [19]): 9.61%; Activity (K562/VCR [20]): 28.58%; fold change (FC) (K562/VCR [21]): 0.44; inhibition (Homo sapiens): Active; Activity (K562/VCR [22]): 18.91%; fold change (FC) (K562/VCR [23]): 0.78; Ratio IC50 [2]: 2.23; Activity (K562/VCR [24]): 23.26%; Activity (K562/VCR [25]): 24.27%; fold change (FC) (K562/VCR [26]): 0.32; fold change (FC) [27]: 0.6; fold change (FC) (K562/VCR [28]): 0.33; Activity (K562/VCR [29]): 25.7%; Activity (K562/VCR [30]): 0.07%; viability at 0.05 µM (K562/VCR [31]): 76.8%; fold change (FC) (K562/VCR [32]): 0.4; Activity (K562/VCR [33]): 29.81%; fold change (FC) (K562/VCR [34]): 0.6; fold change (FC) (K562/VCR [35]): 0.31; Activity (K562/VCR [36]): 13.48%; Activity (K562/VCR [37]): 19.44%; Activity (K562/VCR [38]): 56.97%

Q: Which IC50 (K562) does the source give for `COc1cc([C@@H]2c3cc4c(cc3[C@H](OC(=O)CCCN3C(=O)/C(=C5\Nc6ccccc6C5=O)c5ccccc53)[C@H]3COC(=O)[C@H]23)OCO4)cc(OC)c1OC` here?
A: 1790 nM

Q: And the IC50 (K562/VCR [1])?
A: 1750 nM

Q: What about the “Ratio IC50” value [2] of the same compound?
A: 0.97

Q: With `O=C1Nc2ccccc2/C1=C1/Nc2ccccc2C1=O` [INDIRUBIN] as the compound, how does the IC50 (K562) read?
A: > 100000 nM

Q: And the IC50 (K562/VCR [1])?
A: > 100000 nM
